Laboratory results from paper PMC10967822, “Antimicrobial Indole-3-Carboxamido-Polyamine Conjugates Target Bacterial Membranes and Are Antibiotic Potentiators” (Biomolecules, 2024).
≈ marks a conversion by molar mass, not a printed value.

Tests used:
[1] = tested on: P. aeruginosa ATCC 27853; assay: Doxycycline potentiation against P. aeruginosa; assay type: cell-based, Pseudomonas aeruginosa; details: doxycycline at 2 µg/mL (4.5 µM); for Dox/Pa fold-change (intrinsic MIC / combination MIC): P. aeruginosa ATCC 27853; for Dox/Pa: concentration required to restore doxycycline activity (combination MIC): P. aeruginosa ATCC 27853, mean n = 3
Description: (§1) These measurements were independently repeated in triplicate.

[2] = Cytotoxicity assay (resazurin); assay type: cell-based; details: human, HEK293 cells, mean n = 2
[3] = tested on: S. aureus ATCC 25923; assay: MIC, broth dilution, S. aureus; assay type: cell-based, Staphylococcus aureus; details: Staphylococcus aureus, ATCC25923; S. aureus ATCC 25923, 18 h; read-out: MIC Sa
[4] = tested on: C. neoformans ATCC 208821; assay: Antifungal MIC (CO-ADD), C. neoformans; assay type: cell-based; details: Cryptococcus neoformans, ATCC208821, top dose 32 µg/mL
How it was run: (§2)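 MIC for C. neoformans determined by OD570–600 following a further 3 h with resazurin (0.006% final), whereas C. albicans was read directly at OD530. Both grown static in YNB broth at 2.5 × 10^3 CFU/mL final inoculum, 35 °C for 36 h, from colonies cultured on YPD agar 3 days at 30 °C.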

[5] = tested on: C. albicans ATCC 90028; assay: Antifungal MIC (CO-ADD), C. albicans; assay type: cell-based; details: Candida albicans, ATCC90028, top dose 32 µg/mL
How it was run: as §2

[6] = tested on: E. coli ATCC 25922; assay: MIC, broth dilution, E. coli; assay type: cell-based, Escherichia coli; details: Escherichia coli, ATCC25922; E. coli ATCC 25922, 18 h
[7] = tested on: human red blood cells; assay: Hemolytic assay; assay type: cell-based; details: 10% hemolytic activity, mean n = 2
How it was run: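 Compounds were applied to saline-washed human red blood cells at 0.5 × 10^8 cells/mL, 37 °C, 1 h. Lysis was measured by supernatant absorbance at 405 nm, and concentrations giving 10% and 50% haemolysis were obtained by variable-slope curve fitting.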

[8] = tested on: E. coli ATCC 25922; assay: Erythromycin potentiation against E. coli; assay type: cell-based, Escherichia coli; details: erythromycin at 2 µg/mL (2.7 µM); for Erythro/Ec fold-change (intrinsic MIC / combination MIC): E. coli; for Erythro/Ec: concentration required to restore erythromycin activity (combination MIC): mean n = 3
Description: as §1

[9] = tested on: MRSA ATCC 43300; assay: MIC, broth microdilution (CO-ADD), MRSA; assay type: cell-based, methicillin-resistant S. aureus; details: Staphylococcus aureus; MRSA ATCC 43300; top dose 32 µg/mL; read-out: MIC MRSA
[10] = tested on: K. pneumoniae ATCC 700603; assay: MIC, broth microdilution (CO-ADD), K. pneumoniae; details: top dose 32 µg/mL
[11] = tested on: P. aeruginosa ATCC 27853; assay: MIC, broth dilution, P. aeruginosa; assay type: cell-based, Pseudomonas aeruginosa; details: Pseudomonas aeruginosa, ATCC27853; P. aeruginosa ATCC 27853, 18 h; read-out: MIC Pa
[12] = tested on: A. baumannii ATCC 19606; assay: MIC, broth microdilution (CO-ADD), A. baumannii; assay type: cell-based, Acinetobacter baumannii; details: Acinetobacter baumannii, ATCC19606, top dose 32 µg/mL

In the case of `O=C(NCCCNCCCCCCCCCCNCCCNC(=O)c1c[nH]c2c(F)cccc12)c1c[nH]c2c(F)cccc12` [Compound 16e], the “Dox/Pa fold-change (intrinsic MIC / combination MIC)” value [1] is reported as 8 fold, the “Dox/Pa: concentration required to restore doxycycline activity (combination MIC)” value (“Dox/Pa: concentration required” for short) [1] is reported as 29.9 µM and the IC50 at 20 h [2] is reported as over 38 µM. It also gave an MIC [3] of 239 µM (≈ 145 µg/mL), an MIC [4] of at most 0.3 µM and an MIC [5] of at most 0.3 µM. For the same compound, the MIC [6] was 239 µM (≈ 145 µg/mL), the “Hemolysis HC10” value [7] was over 38 µM and the “Erythro/Ec fold-change (intrinsic MIC / combination MIC)” value [8] was 1 fold. The “Erythro/Ec: concentration required to restore erythromycin activity (combination MIC)” value (from here on “Erythro/Ec: concentration required”) [8] was 239 µM, the MIC [9] was at most 0.3 µM and the “MIC Kp” value [10] was over 38 µM. It also gave an MIC [11] of 239 µM (≈ 145 µg/mL) and an MIC [12] of over 38 µM.
For `COc1ccc2[nH]cc(C(=O)NCCCNCCCCCCCCCCCCNCCCNC(=O)c3c[nH]c4ccc(OC)cc34)c2c1.O=C(O)C(F)(F)F.O=C(O)C(F)(F)F` [Compound 14f], the “Dox/Pa fold-change (intrinsic MIC / combination MIC)” value [1] was 2 fold, the “Dox/Pa: concentration required” value [1] was 56.2 µM and the IC50 at 20 h [2] was over 36 µM. It also gave an MIC [3] of 3.52 µM, an MIC [4] of at most 0.28 µM and an MIC [5] of at most 0.28 µM. The MIC [6] was 14.1 µM, the “Hemolysis HC10” value [7] was over 36 µM and the “Erythro/Ec fold-change (intrinsic MIC / combination MIC)” value [8] was 1 fold. The “Erythro/Ec: concentration required” value [8] was 14.1 µM, the MIC [9] was at most 0.28 µM and the “MIC Kp” value [10] was over 36 µM. For the same compound, the MIC [11] was 112 µM and the MIC [12] was over 36 µM.
With `COc1cccc2c(C(=O)NCCCNCCCCCCCCNCCCNC(=O)c3c[nH]c4c(OC)cccc34)c[nH]c12` [Compound 17d] the “Dox/Pa fold-change (intrinsic MIC / combination MIC)” value [1] was over 4 fold, the “Dox/Pa: concentration required” value [1] was 60.0 µM and the IC50 at 20 h [2] was over 38 µM. The MIC [3] was 120 µM (≈ 72.6 µg/mL), the MIC [4] was at most 0.3 µM and the MIC [5] was over 38 µM. For the same compound, the MIC [6] was 240 µM (≈ 145 µg/mL), the “Hemolysis HC10” value [7] was over 38 µM and the “Erythro/Ec fold-change (intrinsic MIC / combination MIC)” value [8] was 2 fold. For the same compound, the “Erythro/Ec: concentration required” value [8] was 120 µM, the MIC [9] was at most 0.3 µM and the “MIC Kp” value [10] was over 38 µM. For the same compound, the MIC [11] was over 240 µM and the MIC [12] was over 38 µM.
For `O=C(NCCCNCCCCCCCNCCCNC(=O)c1c[nH]c2ccccc12)c1c[nH]c2ccccc12.O=C(O)C(F)(F)F.O=C(O)C(F)(F)F` [Compound 12c], the “Dox/Pa fold-change (intrinsic MIC / combination MIC)” value [1] was over 4 fold, the “Dox/Pa: concentration required” value [1] was 65.9 µM and the IC50 at 20 h [2] was over 42 µM. It also gave an MIC [3] of 132 µM, an MIC [4] of at most 0.33 µM and an MIC [5] of over 42 µM. The MIC [6] was 65.9 µM, the “Hemolysis HC10” value [7] was over 42 µM and the “Erythro/Ec fold-change (intrinsic MIC / combination MIC)” value [8] was 1 fold. For the same compound, the “Erythro/Ec: concentration required” value [8] was 65.9 µM, the MIC [9] was at most 0.33 µM and the “MIC Kp” value [10] was over 42 µM. For the same compound, the MIC [11] was over 263 µM and the MIC [12] was over 42 µM.
In the case of `Cc1ccc2[nH]cc(C(=O)NCCCNCCCCNCCCNC(=O)c3c[nH]c4ccc(C)cc34)c2c1` [Compound 15a], the “Dox/Pa fold-change (intrinsic MIC / combination MIC)” value [1] is reported as over 8 fold, the “Dox/Pa: concentration required” value [1] is reported as 33.6 µM and the IC50 at 20 h [2] is reported as over 43 µM. It also gave an MIC [3] of 67.1 µM (≈ 34.7 µg/mL), an MIC [4] of at most 0.34 µM and an MIC [5] of over 43 µM. The MIC [6] was over 269 µM, the “Hemolysis HC10” value [7] was over 43 µM and the “Erythro/Ec fold-change (intrinsic MIC / combination MIC)” value [8] was over 4 fold. For the same compound, the “Erythro/Ec: concentration required” value [8] was 67.1 µM, the MIC [9] was at most 0.34 µM and the “MIC Kp” value [10] was over 43 µM. The MIC [11] was over 269 µM and the MIC [12] was over 43 µM.
With `Cc1cccc2c(C(=O)NCCCNCCCCCCCCNCCCNC(=O)c3c[nH]c4c(C)cccc34)c[nH]c12` [Compound 18d] the “Dox/Pa fold-change (intrinsic MIC / combination MIC)” value [1] was 8 fold, the “Dox/Pa: concentration required” value [1] was 31.2 µM and the IC50 at 20 h [2] was over 40 µM. For the same compound, the MIC [3] was over 250 µM, the MIC [4] was at most 0.31 µM and the MIC [5] was over 40 µM. The MIC [6] was over 250 µM, the “Hemolysis HC10” value [7] was over 40 µM and the “Erythro/Ec fold-change (intrinsic MIC / combination MIC)” value [8] was 1 fold. The “Erythro/Ec: concentration required” value [8] was 250 µM, the MIC [9] was at most 0.31 µM and the “MIC Kp” value [10] was over 40 µM. The MIC [11] was 250 µM (≈ 143 µg/mL) and the MIC [12] was over 40 µM.
